The source of these data is patent US10758527B2, “Opioid agonist antagonist combinations” (Alkermes Pharma Ireland Limited, priority 2011, dated 2020).

In one assay the test system is Wistar-Kyoto (WKY) rats. Description: Forced swim test (FST). To be noted: WKY rats treated with Buprenorphine (0.1 mg/kg).
The test system of assay [1] is dopamine efflux in the Nucleus Accumbens shell (NAc-sh). Description: In vivo microdialysis of dopamine efflux in free-moving rats. To be noted: antagonist given with Buprenorphine (0.1 mg/kg, SC).
Protocol: Experiments were conducted in rats to assess the ability of opioid antagonists to modulate buprenorphine-induced dopamine efflux in the Nucleus Accumbens shell (NAc-sh) region of the mesolimbic region of the brain. Male rats weighing 300-400 grams were used for all studies. To measure the efflux of dopamine in the NAc-sh an in vivo microdialysis method was utilized in free-moving rats. This method allows the sampling of extracellular cerebrospinal fluid (C SF) from specific brain regions of interest and measurement of neurotransmitter concentrations following the analysis of sampled dialysate with HPLC-EC.
Each rat underwent surgical implantation of microdialysis guide cannula (CMA 12, CMA Microdialysis) to guide the insertion of the microdialysis probe later on. Rats were anesthetized with a mixture of ketamine/xylazine (80/6 mg/kg IP) and placed in a stereotaxic apparatus. […] Guide cannula were capped with dummy probes until microdialysis probe insertion. On the day prior to experimentation (3-4 days post-surgery), animals were weighed to determine appropriate dose for test articles. A microdialysis probe (CMA 12, 2 mm membrane, CMA microdialysis) was then inserted through the guide cannula. […] Each sample was analyzed via HPLC-EC to determine neurotransmitter concentration of dopamine based upon a six-point standard curve.

Protocol for Wistar-Kyoto (WKY) rats: In the “forced swim test” (FST) rats are placed in a tank of water, from which they cannot escape, on two successive days; 15 minutes on the first day and 5 minutes on the second day. While in the water they will swim, attempt to climb the container wall or become “immobile” floating in the water. The total time rats are immobility increases between the first and second day. […] At 24 h after the first swim, rats were retested for 5 minutes. Videos were scored manually for immobility time (in seconds) using a manual stop watch in 60 second intervals by a rater blinded to the treatment groups. A rat was judged to be immobile if it was making only movements necessary to keep its head above water.

For `NC(=O)c1ccc2c(c1O)[C@]13CCN(CC4CC4)[C@H](C2)[C@]1(O)CCC(=O)C3` [Compound-1], in the assay with Wistar-Kyoto (WKY) rats, the “immobility in forced swim test with increased concentrations of Compound-1” value is recorded as “Increase in immobility”. Moreover, in assay [1], the “effect on buprenorphine-induced NAc-sh dopamine efflux” value (“effect” for short) was “Reduction in the efflux of dopamine”.

Turning to `C=C1CC[C@@]2(O)[C@H]3Cc4ccc(C(N)=O)c(O)c4[C@@]2(CCN3CC2CC2)C1` [Compound-10], the “effect” value in assay [1] is “Reduction in the efflux of dopamine”.

Consider `C=C1CC[C@@]2(O)[C@H]3Cc4ccc(O)c5c4[C@@]2(CCN3CC2CC2)[C@H]1O5` [Nalmefene, nalmefene, reference compound], for which the “effect” value in assay [1] is given as “Reduction in the efflux of dopamine”.

In the case of `O=C1CC[C@@]2(O)[C@H]3Cc4ccc(O)c5c4[C@@]2(CCN3CC2CC2)[C@H]1O5` [Naltrexone, naltrexone, reference compound], the “effect” value in assay [1] was “Reduction in the efflux of dopamine”.
